The values below come from patent US11083709B2, “Compounds, compositions, and methods of increasing CFTR activity” (Proteostasis Therapeutics, Inc., priority 2015, dated 2021).

The assay addresses T1, ΔF508-CFTR (Homo sapiens, UniProt P13569, DEL508-508).
T1 construct: primary lung epithelial cells (hBEs) homozygous for the Cystic Fibrosis-causing ΔF508 mutation; endogenous in cells; host or cells: primary lung epithelial cells (hBEs) homozygous for ΔF508
The assay can be described thus: hBE equivalent current (Ieq) assay, primary lung epithelial cells homozygous for ΔF508. In kind it is cell-based. The note with it: 24 h treatment; for leq: activity of compound with VX-809, % of VX-809 (AUC of equivalent chloride current): compound at 10 uM and VX-809 at 1 uM, relative to VX-809 (1 uM); for leq: activity relative to VX-809 (AUC of equivalent chloride current): compound alone run at 10 uM, relative to VX-809 at 1 uM. On the procedure:
Primary lung epithelial cells homozygous for the Cystic Fibrosis-causing ΔF508 mutation were differentiated for a minimum of 4 weeks in an air-liquid interface on Costar 24 well HTS filter plates prior to the equivalent current (Ieq) measurements. Cells were apically mucus-washed for 30 minutes 24h prior to treatment with compounds. The basolateral media was removed and replaced with media containing the compound of interest diluted to its final concentration from DMSO stocks. Treated cells were incubated at 37° C. and 5% CO2 for 24 hours. At the end of the treatment period, the media was changed to the Ieq experimental solution for 30 minutes before the experiment and plates are maintained in a CO2-free incubator during this period. The plates containing the cells were then placed in pre-warmed heating blocks at 36° C.±0.5 for 15 minutes before measurements are taken. The transepithelial voltage (VT) and conductance (GT) were measured using a custom 24 channel current clamp (TECC-24) with 24 well electrode manifold. The Ieq assay measurements were made following additions with standardized time periods: • 1. The baseline VT and GT values were measured for approximately 20 minutes. • 2. Benzamil was added to block ENaC for 15 minutes. • 3. Forskolin plus VX-770 (ivacaftor) were added to maximally activate ΔF508-CFTR for 27 minutes. • 4. Bumetanide was added to inhibit the NaK2Cl cotransporter and shut-off secretion of chloride.
The activity data captured was the area under the curve (AUC) for the traces of the equivalent chloride current. The AUC was collected from the time of the forskolin/VX-770 addition until the inhibition by bumetanide addition. Correction in response to compound treatment was scored as the increase in the AUC for compound-treated samples over that of vehicle-treated samples.
The results are shown below in Table 2. ++ indicates activity ≥25% run at 10 uM of VX-809 at 1 uM, + indicates activity 10 to <25% run at 10 uM of VX-809 at 1 uM, ** indicates activity ≥200% of VX-809 (1 uM) with compound at 10 uM and VX-809 at 1 uM; * indicates activity 100-200% of VX-809 (1 uM) with compound at 10 uM and VX-809 at 1 uM. ^## indicates activity ≥200% of VX-809 (3 uM) with compound at 10 uM and VX-809 at 3 uM; ^# indicates activity 100-200% of VX-809 (3 uM) with compound at 10 uM and VX-809 at 3 uM.

Molecules are shown by their SMILES.

T1 sequence (P13569 with tags, fused parts or gaps DEL508-508): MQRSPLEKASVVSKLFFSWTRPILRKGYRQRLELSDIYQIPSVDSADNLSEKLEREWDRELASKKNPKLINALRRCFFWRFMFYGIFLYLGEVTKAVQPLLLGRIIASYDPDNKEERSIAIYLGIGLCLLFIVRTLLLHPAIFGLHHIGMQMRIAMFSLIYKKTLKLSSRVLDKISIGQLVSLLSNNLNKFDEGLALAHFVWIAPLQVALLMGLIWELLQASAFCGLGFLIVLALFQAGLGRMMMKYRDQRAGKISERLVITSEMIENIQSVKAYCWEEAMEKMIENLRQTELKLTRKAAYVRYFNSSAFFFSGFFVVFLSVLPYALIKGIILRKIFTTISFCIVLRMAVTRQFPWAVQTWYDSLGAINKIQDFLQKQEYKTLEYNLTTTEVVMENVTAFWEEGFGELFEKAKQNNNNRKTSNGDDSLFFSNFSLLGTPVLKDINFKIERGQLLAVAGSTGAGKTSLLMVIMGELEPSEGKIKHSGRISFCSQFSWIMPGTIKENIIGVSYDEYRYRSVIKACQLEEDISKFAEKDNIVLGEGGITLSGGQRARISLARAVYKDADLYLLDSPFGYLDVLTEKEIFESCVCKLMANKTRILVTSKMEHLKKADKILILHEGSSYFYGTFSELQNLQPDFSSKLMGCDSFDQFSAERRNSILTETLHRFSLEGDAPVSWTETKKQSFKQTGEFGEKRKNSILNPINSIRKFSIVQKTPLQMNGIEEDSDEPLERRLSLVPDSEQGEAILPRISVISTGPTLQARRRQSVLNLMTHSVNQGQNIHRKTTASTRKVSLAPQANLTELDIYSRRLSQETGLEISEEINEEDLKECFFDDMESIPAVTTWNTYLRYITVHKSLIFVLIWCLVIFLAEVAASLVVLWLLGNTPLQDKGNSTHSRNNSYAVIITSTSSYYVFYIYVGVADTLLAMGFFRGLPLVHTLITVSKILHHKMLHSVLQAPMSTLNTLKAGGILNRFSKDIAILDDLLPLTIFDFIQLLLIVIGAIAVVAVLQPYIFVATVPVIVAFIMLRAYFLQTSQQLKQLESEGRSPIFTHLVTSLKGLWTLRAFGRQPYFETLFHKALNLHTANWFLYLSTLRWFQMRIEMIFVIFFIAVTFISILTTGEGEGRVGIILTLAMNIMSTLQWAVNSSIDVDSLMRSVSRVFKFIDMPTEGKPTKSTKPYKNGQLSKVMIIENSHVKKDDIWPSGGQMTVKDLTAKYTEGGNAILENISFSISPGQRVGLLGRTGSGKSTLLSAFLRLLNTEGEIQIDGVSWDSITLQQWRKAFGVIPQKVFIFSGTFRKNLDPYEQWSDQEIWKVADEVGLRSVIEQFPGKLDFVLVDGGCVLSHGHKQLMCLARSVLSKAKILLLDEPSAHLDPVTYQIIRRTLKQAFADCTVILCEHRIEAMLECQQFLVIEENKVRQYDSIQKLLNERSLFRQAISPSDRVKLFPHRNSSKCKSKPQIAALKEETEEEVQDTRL

`C[C@@H](OCC1CN(C)C1)c1nnc([C@H]2C[C@H](NC(=O)c3cc(-c4ccccc4)no3)C2)o1` [Example 20, N-(trans-3-(5-((R)-1-((1-methylazetidin-3-yl)methoxy)ethyl)-1,3,4-oxadiazol-2-yl)cyclobutyl)-3-phenylisoxazole-5-carboxamide]: the “leq: activity of compound with VX-809, % of VX-809 (AUC of equivalent chloride current)” value is “* (* indicates activity 100-200% of VX-809 (1 uM) with compound at 10 uM and VX-809 at 1 uM)”.
For the compound `C[C@@H](O)c1nnc(C[C@H]2C[C@H](NC(=O)c3cc(-c4cccs4)no3)C2)o1` [Example 46, N-[(1r,3r)-3-([5-[(1R)-1-Hydroxyethyl]-1,3,4-oxadiazol-2-yl]methyl)cyclobutyl]-3-(thiophen-2-yl)-1,2-oxazole-5-carboxamide], the “leq: activity of compound with VX-809, % of VX-809 (AUC of equivalent chloride current)” value is “* (* indicates activity 100-200% of VX-809 (1 uM) with compound at 10 uM and VX-809 at 1 uM)”.
In the case of `O=C(NCC1CCCO1)c1cc(-c2ccccc2)co1` (stereo not shown) [Example 9, 4-phenyl-N-((tetrahydrofuran-2-yl)methyl)furan-2-carboxamide], the “leq: activity relative to VX-809 (AUC of equivalent chloride current)” value is listed as “++ (++ indicates activity ≥25% run at 10 uM of VX-809 at 1 uM)”.
On to `C[C@@H](O)c1nnc([C@H]2C[C@H](NC(=O)c3cc(-c4ccc(F)cc4)no3)C2)o1` [Example 36, 3-(4-fluorophenyl)-N-(trans-3-(5-((R)-1-hydroxyethyl)-1,3,4-oxadiazol-2-yl)cyclobutyl)isoxazole-5-carboxamide], for which the “leq: activity of compound with VX-809, % of VX-809 (AUC of equivalent chloride current)” value was “* (* indicates activity 100-200% of VX-809 (1 uM) with compound at 10 uM and VX-809 at 1 uM)”.
On the same count and under the same terms, the result for `C[C@@H](O)c1nnc(CC2CC(NC(=O)c3cc(-c4ccccc4)no3)C2)o1` (stereo partly drawn) [Example 37, N-((1S,3s)-3-((5-((R)-1-hydroxyethyl)-1,3,4-oxadiazol-2-yl)methyl)cyclobutyl)-3-phenylisoxazole-5-carboxamide] reads “** (** indicates activity ≥200% of VX-809 (1 uM) with compound at 10 uM and VX-809 at 1 uM)”.
The same measure, in the same setting: next, `C[C@@H](O)c1nnc(CC2CC(NC(=O)c3cc(-c4ccccc4)no3)C2)s1` (stereo partly drawn) [Example 42, 3-Phenyl-N-[(1r,3r)-3-([5-[(1R)-1-hydroxyethyl]-1,3,4-thiadiazol-2-yl]methyl)cyclobutyl]-1,2-oxazole-5-carboxamide]: “* (* indicates activity 100-200% of VX-809 (1 uM) with compound at 10 uM and VX-809 at 1 uM)”; `C[C@@H](O)c1nnc([C@H]2C[C@H](NC(=O)c3onc(-c4ccccc4)c3F)C2)o1` [Example 50, 4-Fluoro-3-phenyl-N-[(1r,3r)-3-[5-[(1R)-1-hydroxyethyl]-1,3,4-oxadiazol-2-yl]cyclobutyl]-1,2-oxazole-5-carboxamide]: “* (* indicates activity 100-200% of VX-809 (1 uM) with compound at 10 uM and VX-809 at 1 uM)”.
Regarding `O=C(NCCCn1ccnc1)c1cc(-c2ccccc2)no1` [Example 4, N-(3-(1H-imidazol-1-yl)propyl)-3-phenylisoxazole-5-carboxamide], the “leq: activity relative to VX-809 (AUC of equivalent chloride current)” value is reported as “+ (+ indicates activity 10 to <25% run at 10 uM of VX-809 at 1 uM)”.
On to `C[C@@H](O)c1nnc(CC2CC(NC(=O)c3cc(-c4ccc(F)cc4)no3)C2)s1` (stereo partly drawn) [Example 43, 3-(4-Fluorophenyl)-N-[(1s,3s)-3-([5-[(1R)-1-hydroxyethyl]-1,3,4-thiadiazol-2-yl]methyl)cyclobutyl]-1,2-oxazole-5-carboxamide], for which the “leq: activity of compound with VX-809, % of VX-809 (AUC of equivalent chloride current)” value is “** (** indicates activity ≥200% of VX-809 (1 uM) with compound at 10 uM and VX-809 at 1 uM)”.
On the same count and under the same terms, next, `C[C@H](O)c1cn(C[C@H]2C[C@@H](NC(=O)c3cc(-c4ccccc4)no3)C2)nn1` [Example 58, 3-Phenyl-N-[(1s,3s)-3-([4-[(1S)-1-hydroxyethyl]-1H-1,2,3-triazol-1-yl]methyl)cyclobutyl]-1,2-oxazole-5-carboxamide]: “* (* indicates activity 100-200% of VX-809 (1 uM) with compound at 10 uM and VX-809 at 1 uM)”.
On to `O=C(NCCCn1ccnc1)c1cc(-c2ccccc2)co1` [Example 11, N-(3-(1H-imidazol-1-yl)propyl)-4-phenylfuran-2-carboxamide], for which the “leq: activity relative to VX-809 (AUC of equivalent chloride current)” value is “++ (++ indicates activity ≥25% run at 10 uM of VX-809 at 1 uM)”.
For the compound `O=C(N[C@H]1C[C@@H](n2cc(CO)nn2)C1)c1cc(-c2ccccc2)no1` [Example 29, N-(cis-3-(4-(hydroxymethyl)-1H-1,2,3-triazol-1-yl)cyclobutyl)-3-phenylisoxazole-5-carboxamide], the “leq: activity of compound with VX-809, % of VX-809 (AUC of equivalent chloride current)” value is “** (** indicates activity ≥200% of VX-809 (1 uM) with compound at 10 uM and VX-809 at 1 uM)”.
For the compound `O=C(NCCN1CCOCC1)c1cc(-c2ccccc2)co1` [Example 10, N-(2-morpholinoethyl)-4-phenylfuran-2-carboxamide], the “leq: activity relative to VX-809 (AUC of equivalent chloride current)” value is listed as “+ (+ indicates activity 10 to <25% run at 10 uM of VX-809 at 1 uM)”.
As to `O=C(N[C@H]1C[C@H](c2nnc(C3CN(CC4CCC4)C3)o2)C1)c1cc(-c2ccccc2)no1` [Example 27, N-(trans-3-(5-(1-(cyclobutylmethyl)azetidin-3-yl)-1,3,4-oxadiazol-2-yl)cyclobutyl)-3-phenylisoxazole-5-carboxamide], the “leq: activity of compound with VX-809, % of VX-809 (AUC of equivalent chloride current)” value is “* (* indicates activity 100-200% of VX-809 (1 uM) with compound at 10 uM and VX-809 at 1 uM)”.
Regarding `CN1CCC(N2CC(c3nnc(C4CC(NC(=O)c5cc(-c6ccccc6)no5)C4)o3)C2)CC1` (stereo not drawn) [Example 24, N-cis-(3-(5-(1-(1-methylpiperidin-4-yl)azetidin-3-yl)-1,3,4-oxadiazol-2-yl)cyclobutyl)-3-phenylisoxazole-5-carboxamide], the “leq: activity of compound with VX-809, % of VX-809 (AUC of equivalent chloride current)” value was “* (* indicates activity 100-200% of VX-809 (1 uM) with compound at 10 uM and VX-809 at 1 uM)”.
Same read-out and setting: next, `CO[C@H](C)c1nnc([C@H]2C[C@H](NC(=O)c3cc(-c4ccccc4)no3)C2)o1` [Example 14, N-(trans-3-(5-((R)-1-methoxyethyl)-1,3,4-oxadiazol-2-yl)cyclobutyl)-3-phenylisoxazole-5-carboxamide]: “* (* indicates activity 100-200% of VX-809 (1 uM) with compound at 10 uM and VX-809 at 1 uM)”.
The same measure, in the same setting: next, `O=C(NC1CC(c2nnc(C3COC3)o2)C1)c1cc(-c2ccccc2)no1` (stereo not drawn) [Example 22, N-trans-3-(5-(oxetan-3-yl)-1,3,4-oxadiazol-2-yl)cyclobutyl)-3-phenylisoxazole-5-carboxamide]: “* (* indicates activity 100-200% of VX-809 (1 uM) with compound at 10 uM and VX-809 at 1 uM)”; `C[C@H](O)c1cnnn1C[C@H]1C[C@@H](NC(=O)c2cc(-c3ccccc3)no2)C1` [Example 57, 3-Phenyl-N-[(1s,3s)-3-([5-[(1S)-1-hydroxyethyl]-1H-1,2,3-triazol-1-yl]methyl)cyclobutyl]-1,2-oxazole-5-carboxamide]: “** (** indicates activity ≥200% of VX-809 (1 uM) with compound at 10 uM and VX-809 at 1 uM)”; `O=C(N[C@H]1C[C@@H](n2nncc2CO)C1)c1cc(-c2ccccc2)no1` [Example 28, N-(cis-3-(5-(hydroxymethyl)-1H-1,2,3-triazol-1-yl)cyclobutyl)-3-phenylisoxazole-5-carboxamide]: “** (** indicates activity ≥200% of VX-809 (1 uM) with compound at 10 uM and VX-809 at 1 uM)”.
